Measurements reported in publication PMC7413516, “Antidepressant-like activity and safety profile evaluation of 1H-imidazo[2,1-f]purine-2,4(3H,8H)-dione derivatives as 5-HT1A receptor partial agonists” (PLoS ONE, 2020).
Values joined by “and” are separate entries in the source; they are usually repeats but may differ in a detail not shown here. Equal entries are not always repeated.

What was measured:
normotensive rats = test: Blood pressure measurement in normotensive anesthetized rats; type: in vivo, Wistar rats; settings: for DBP Mean / SBP Mean: group mean; for DBP / SBP: individual rat
Method: Male Wistar normotensive rats were anesthetized with thiopental (50–75 mg/kg, i.p.). The right carotid artery was cannulated with a polyethylene tube filled with heparin in saline to facilitate pressure measurement using the Datamax apparatus (Columbus Instruments, Columbus, Ohio, USA). The studied compounds were administered after a 15-min stabilization period.

PDE4B = test system: PDE4B; set-up: method as in PMID 27353547; settings: in vitro, bioluminescent detection system; ref [8]; cited from earlier work
[1] = test system: adrenergic α1 receptors (α1R); test: Pressor response to methoxamine in anesthetized normotensive rats (adrenolytic activity); type: in vivo, Wistar rats; settings: 10 mg/kg
Method: In a separate series of experiments on anesthetized normotensive rats, the effect of studied compounds on the pressor response to methoxamine (Sigma Aldrich) (150 μg/kg) was investigated. Pressor responses to methoxamine injected intravenously were measured before and 30 min after the administration of the tested compound. The amplitudes of the pressure values were measured in 4 independent experiments.

[2] = target: serotonergic 5-HT7 receptor (5-HT7R); set-up: method as in PMID 27353547; settings: ref [8]; cited from earlier work
mice = test: Locomotor activity (Opto M3 activity monitor) in mice; type: in vivo, Swiss albino mice; settings: for Number of movements (individual animals): raw data
From the text: The investigated compounds AZ-853 (8-(4-(4-(2-fluorophenyl)piperazin-1-yl)butyl)-1,3-dimethyl-1H-imidazo[2,1-f]purine-2,4(3H,8H)-dione and AZ-861 (1,3-dimethyl-8-(4-(4-(3-(trifluoromethyl)phenyl)piperazin-1-yl)butyl)-1H-imidazo[2,1-f]purine-2,4(3H,8H)-dione) were synthesised in the Department of Medicinal Chemistry, Faculty of Pharmacy, Jagiellonian University, and their synthesis was described earlier. AZ-853 and AZ-861 were suspended in 1% aqueous solution of Tween 80, and WAY-100635 (Sigma, Germany) was dissolved in 0.9% saline. In acute experiments, the selected compounds AZ-853 (0.156–2.5 mg/kg) and AZ-861 (0.625–2.5 mg/kg) were injected i.p. once 60 min before tests, whereas WAY-100635 (0.3 mg/kg) was administered subcutaneously (s.c.) 45 min before the test. […] In chronic experiments, AZ-853 and AZ-861 were administered i.p. once a day (between 9:00 AM and 10:00 AM) for 16 consecutive days at the minimum active doses selected from FST experiment, i.e. 0.625 and 1.25 mg/kg, respectively. […]. The control groups received 1% aqueous solution of Tween 80.
Locomotor activity was recorded with an Opto M3 multi-channel activity monitor (MultiDevice Software v.1.3, Columbus Instruments). The Swiss albino mice were individually placed in plastic cages (220 × 120 × 130 mm) for 30 min habituation period, and then the crossings of each channel (ambulation) were counted from […] to 6 min, that is the time equal to the observation period in FST. The cages were cleaned up with 70% ethanol after each mouse.
The Swiss albino mice were used in the experiment. AZ-853 and AZ-861 were injected once daily for 16 consecutive days. […]. FST, as described earlier, was performed on the 14th day just before the next treatment. To ensure that the effects observed in FST are not the result of increased motility of animals, on the 13th day, just before the next administration, the locomotor activity was measured as described earlier, from 2 to 6 min after test start, i.e. in the period identical to the duration of FST. Blood and organ collection was performed on the 17th day at 24 h after the last dose and fasting.

[3] = target: T1, human serotonin 5-HT1A receptor (Homo sapiens, UniProt P08908); test: ERK1/2 phosphorylation (SureFire Alpha LISA, CHO-K1 5HT1AR cells)
T1 sequence (P08908 1-422): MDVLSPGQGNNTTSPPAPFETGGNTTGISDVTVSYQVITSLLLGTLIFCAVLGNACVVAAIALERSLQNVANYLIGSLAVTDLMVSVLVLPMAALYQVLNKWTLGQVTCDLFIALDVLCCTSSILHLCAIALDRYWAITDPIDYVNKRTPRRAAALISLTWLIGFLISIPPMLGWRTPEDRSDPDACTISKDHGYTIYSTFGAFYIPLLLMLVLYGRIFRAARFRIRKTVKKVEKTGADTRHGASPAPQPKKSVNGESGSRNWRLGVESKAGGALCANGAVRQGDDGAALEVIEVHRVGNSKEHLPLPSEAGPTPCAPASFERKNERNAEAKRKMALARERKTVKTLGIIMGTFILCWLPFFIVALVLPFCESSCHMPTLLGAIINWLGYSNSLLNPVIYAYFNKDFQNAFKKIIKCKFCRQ
Method: CHO-K1 cell line transfected with 5-HT1A receptor, were commercially obtained from Perkin Elmer (Cat. No. ES-310-C, Lot Number M2W-C1). Cells were cultured according to manufacturer’s instruction. […] Geneticin-resistant clones were obtained by limit dilution and compared for receptor expression levels using a radioligand binding assay. The clone with the highest receptor expression level was selected for characterization in binding and functional assays. […] Corresponding Protein Sequence: Identical to GenBank NP_000515.2. Receptor expression level (BMAX): Estimated to be 3.7 ± 2.3 pmol/mg protein, using [3H] […] This cell line tested negative for mycoplasma.

EC50 [3]: 0.00115 µM | Emax ([3]; CHO-K1, read-out: Emax (%) ± SEM, agonist mode): 76 ± 1.3% | decreased efficacy as compared to 5-HT ([3]; p-ERK1/2): 1.3 fold | increased potency as compared to 5-HT ([3]; p-ERK1/2): 9.1 fold
SMILES: Cn1c(=O)c2c(nc3n(CCCCN4CCN(c5cccc(C(F)(F)F)c5)CC4)ccn23)n(C)c1=O [AZ-861, 1,3-dimethyl-8-(4-(4-(3-(trifluoromethyl)phenyl)piperazin-1-yl)butyl)-1H-imidazo[2,1-f]purine-2,4(3H,8H)-dione]
effect on arterial pressure (normotensive rats; 10 mg/kg): did not significantly affect the arterial pressure | DBP Mean (normotensive rats; time 0 min): 86.8 mmHg | SBP Mean (normotensive rats; time 0 min): 124.2 mmHg | DBP (normotensive rats; time 0 min): 74 mmHg and 91 mmHg and 79 mmHg and 94 mmHg and 89 mmHg | SBP (normotensive rats; time 0 min): 113 mmHg and 124 mmHg and 105 mmHg and 134 mmHg and 135 mmHg | DBP Mean (normotensive rats; time 5 min): 87.2 mmHg | SBP Mean (normotensive rats; time 5 min): 122.2 mmHg | DBP (normotensive rats; time 5 min): 91 mmHg and 76 mmHg and 84 mmHg and 93 mmHg and 98 mmHg and 81 mmHg | SBP (normotensive rats; time 5 min): 122 mmHg and 101 mmHg and 119 mmHg and 139 mmHg and 138 mmHg and 114 mmHg | DBP Mean (normotensive rats; time 10 min): 86.8 mmHg | SBP Mean (normotensive rats; time 10 min): 122.3 mmHg | DBP (normotensive rats; time 10 min): 90 mmHg and 76 mmHg and 87 mmHg and 98 mmHg and 80 mmHg | SBP (normotensive rats; time 10 min): 120 mmHg and 102 mmHg and 124 mmHg and 139 mmHg and 136 mmHg and 113 mmHg | DBP Mean (normotensive rats; time 15 min): 86.2 mmHg | SBP Mean (normotensive rats; time 15 min): 123.3 mmHg | DBP (normotensive rats; time 15 min): 90 mmHg and 77 mmHg and 89 mmHg and 94 mmHg | SBP (normotensive rats; time 15 min): 120 mmHg and 103 mmHg and 137 mmHg and 138 mmHg and 131 mmHg and 111 mmHg | DBP Mean (normotensive rats; time 20 min): 85.8 mmHg | SBP Mean (normotensive rats; time 20 min): 121.8 mmHg | DBP (normotensive rats; time 20 min): 89 mmHg and 76 mmHg and 91 mmHg and 87 mmHg and 94 mmHg | SBP (normotensive rats; time 20 min): 118 mmHg and 100 mmHg and 138 mmHg and 139 mmHg and 128 mmHg and 109 mmHg | DBP Mean (normotensive rats; time 30 min): 86.5 mmHg | SBP Mean (normotensive rats; time 30 min): 124.2 mmHg | DBP (normotensive rats; time 30 min): 88 mmHg and 77 mmHg and 93 mmHg and 89 mmHg and 94 mmHg and 74 mmHg | SBP (normotensive rats; time 30 min): 119 mmHg and 101 mmHg and 136 mmHg and 139 mmHg and 128 mmHg and 108 mmHg | DBP Mean (normotensive rats; time 40 min): 85.5 mmHg | SBP Mean (normotensive rats; time 40 min): 122.0 mmHg | DBP (normotensive rats; time 40 min): 88 mmHg and 76 mmHg and 92 mmHg and 95 mmHg and 75 mmHg | SBP (normotensive rats; time 40 min): 122 mmHg and 106 mmHg and 134 mmHg and 136 mmHg and 128 mmHg and 108 mmHg | DBP Mean (normotensive rats; time 50 min): 85.7 mmHg | SBP Mean (normotensive rats; time 50 min): 122.3 mmHg | DBP (normotensive rats; time 50 min): 96 mmHg and 81 mmHg and 89 mmHg and 84 mmHg and 93 mmHg and 77 mmHg | SBP (normotensive rats; time 50 min): 134 mmHg and 110 mmHg and 130 mmHg and 135 mmHg and 125 mmHg | DBP Mean (normotensive rats; time 60 min): 86.7 mmHg | SBP Mean (normotensive rats; time 60 min): 124.0 mmHg | DBP (normotensive rats; time 60 min): 98 mmHg and 83 mmHg and 88 mmHg and 82 mmHg and 93 mmHg and 75 mmHg | SBP (normotensive rats; time 60 min): 135 mmHg and 112 mmHg and 129 mmHg and 126 mmHg and 108 mmHg | DBP Mean (normotensive rats; time 70 min): 86.3 mmHg | SBP Mean (normotensive rats; time 70 min): 123.7 mmHg | DBP (normotensive rats; time 70 min): 96 mmHg and 86 mmHg and 80 mmHg and 93 mmHg and 77 mmHg | SBP (normotensive rats; time 70 min): 134 mmHg and 115 mmHg and 127 mmHg and 128 mmHg and 125 mmHg and 113 mmHg | DBP Mean (normotensive rats; time 80 min): 86.8 mmHg | SBP Mean (normotensive rats; time 80 min): 124.5 mmHg | DBP (normotensive rats; time 80 min): 97 mmHg and 87 mmHg and 86 mmHg and 82 mmHg and 93 mmHg and 76 mmHg | SBP (normotensive rats; time 80 min): 134 mmHg and 115 mmHg and 126 mmHg and 131 mmHg and 125 mmHg and 116 mmHg | PDE4B inhibitory activity (PDE4B): did not induce PDE4B and PDE10A inhibitory activity | reversal of the effect of methoxamine [1]: approximately 40% | mean reduction of blood pressure vs. methoxamine alone ([1]; 30 min prior to methoxamine 150 μg/kg): 40.45 mmHg | Ki [2]: 0.136 µM | effect on spontaneous locomotor activity, acute administration (mice; 4 min period identical to FST, AZ-853 0.625, 1.25, 2.5 mg/kg, AZ-861 1.25 mg/kg, WAY-100635 0.3 mg/kg alone or combined): did not change the behavior of the animals | Number of movements (mean) (mice; acute, 1.25 mg/kg i.p., measured from 3 to 6 min): 167.3 | Number of movements (individual animals) (mice; acute, 1.25 mg/kg, 3 to 6 min): 185 and 251 and 120 and 156 and 217 and 91 and 151 | Number of movements (mean) (mice; repeated, 1.25 mg/kg, 24 h after 12th administration, during 4 min): 513.9 | Number of movements (individual animals) (mice; repeated, 1.25 mg/kg): 418 and 521 and 595 and 467 and 633 and 454 and 778 and 245
